Test results reported in patent publication US11555012B2 (Nimbus Artemis, Inc., priority 2018, dated 2023).

What was measured:
ACL [1] = molecular target: T1, ACL (Homo sapiens (Human), UniProt P53396); assay: ADP-Glo Assay
Target sequence in this assay (P53396 other isoform, or with tags, fused parts or gaps isoform P53396-2): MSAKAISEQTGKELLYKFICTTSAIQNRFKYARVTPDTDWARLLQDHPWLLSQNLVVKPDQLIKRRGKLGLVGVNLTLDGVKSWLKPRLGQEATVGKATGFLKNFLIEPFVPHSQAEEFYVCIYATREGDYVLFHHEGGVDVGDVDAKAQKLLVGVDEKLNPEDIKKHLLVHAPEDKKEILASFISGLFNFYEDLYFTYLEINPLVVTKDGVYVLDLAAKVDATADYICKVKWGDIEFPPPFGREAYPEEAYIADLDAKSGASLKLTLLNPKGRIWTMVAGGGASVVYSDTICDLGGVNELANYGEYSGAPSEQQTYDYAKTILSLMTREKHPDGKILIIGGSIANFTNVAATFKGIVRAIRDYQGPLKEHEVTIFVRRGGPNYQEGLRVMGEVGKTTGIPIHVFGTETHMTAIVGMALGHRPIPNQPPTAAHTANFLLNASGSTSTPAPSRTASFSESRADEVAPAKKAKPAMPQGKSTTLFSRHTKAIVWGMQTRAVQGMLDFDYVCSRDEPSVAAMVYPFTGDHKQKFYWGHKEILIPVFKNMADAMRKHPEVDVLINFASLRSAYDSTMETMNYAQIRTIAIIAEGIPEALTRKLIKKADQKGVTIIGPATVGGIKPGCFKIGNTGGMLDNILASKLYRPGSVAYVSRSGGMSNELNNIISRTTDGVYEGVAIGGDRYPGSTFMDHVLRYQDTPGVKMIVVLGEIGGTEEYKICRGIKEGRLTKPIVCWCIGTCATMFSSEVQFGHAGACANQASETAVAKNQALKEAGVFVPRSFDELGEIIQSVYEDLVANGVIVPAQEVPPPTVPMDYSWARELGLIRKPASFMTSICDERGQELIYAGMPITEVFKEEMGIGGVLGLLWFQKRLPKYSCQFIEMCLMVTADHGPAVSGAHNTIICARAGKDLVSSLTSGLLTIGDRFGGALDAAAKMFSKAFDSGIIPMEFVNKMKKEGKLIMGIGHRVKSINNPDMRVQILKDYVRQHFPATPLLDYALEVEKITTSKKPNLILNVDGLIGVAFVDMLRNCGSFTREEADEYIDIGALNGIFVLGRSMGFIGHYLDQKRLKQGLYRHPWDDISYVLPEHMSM

ACL [2] = molecular target: T1, ACL; assay: ACLY-MDH Coupled Assay
Target sequence in this assay (P53396 whole entry, species assumed): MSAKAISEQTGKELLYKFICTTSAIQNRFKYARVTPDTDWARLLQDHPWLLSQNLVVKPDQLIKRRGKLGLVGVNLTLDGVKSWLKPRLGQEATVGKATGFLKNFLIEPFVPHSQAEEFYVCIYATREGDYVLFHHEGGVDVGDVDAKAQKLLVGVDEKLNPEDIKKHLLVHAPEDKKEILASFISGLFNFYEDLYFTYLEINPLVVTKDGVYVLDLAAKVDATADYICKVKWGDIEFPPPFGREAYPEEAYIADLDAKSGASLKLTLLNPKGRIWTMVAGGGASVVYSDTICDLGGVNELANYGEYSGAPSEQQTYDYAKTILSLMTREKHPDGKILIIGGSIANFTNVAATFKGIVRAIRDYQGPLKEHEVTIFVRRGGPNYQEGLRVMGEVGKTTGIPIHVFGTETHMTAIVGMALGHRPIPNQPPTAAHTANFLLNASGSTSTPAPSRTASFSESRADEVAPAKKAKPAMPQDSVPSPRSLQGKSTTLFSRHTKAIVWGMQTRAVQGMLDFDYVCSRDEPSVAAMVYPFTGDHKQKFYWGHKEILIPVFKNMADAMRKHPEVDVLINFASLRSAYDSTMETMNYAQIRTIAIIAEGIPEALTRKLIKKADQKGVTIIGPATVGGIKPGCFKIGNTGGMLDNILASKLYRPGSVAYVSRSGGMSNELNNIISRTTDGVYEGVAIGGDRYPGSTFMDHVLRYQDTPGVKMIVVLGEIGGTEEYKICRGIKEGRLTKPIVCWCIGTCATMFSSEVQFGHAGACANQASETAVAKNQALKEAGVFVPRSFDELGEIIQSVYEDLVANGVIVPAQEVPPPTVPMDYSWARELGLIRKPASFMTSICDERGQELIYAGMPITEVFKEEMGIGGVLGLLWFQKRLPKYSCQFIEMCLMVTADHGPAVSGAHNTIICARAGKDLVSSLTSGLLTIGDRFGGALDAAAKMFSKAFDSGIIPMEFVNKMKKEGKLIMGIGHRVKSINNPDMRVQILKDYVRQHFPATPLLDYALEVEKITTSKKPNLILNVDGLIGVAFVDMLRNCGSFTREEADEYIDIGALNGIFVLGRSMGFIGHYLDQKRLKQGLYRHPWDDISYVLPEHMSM
Procedure: Compounds of the present invention were evaluated in an ACLY Coupled Assay.
The assay protocol for the Coupled Assay (below) was followed:
b) Add 1 μL cpds to 96 assay plate, Test cpd conc: 100/30/10 μM top dose, 3 folds dilution, 10+0+control (control: buffer without ACL+DMSO) points, 1000 rpm for 1 min, incubation at 25° C. for 60 min

[3] = read-out: ACL-ADP-Glo (IC50), 3 nM ACL, 15 μM ATP, 3 μM CoA, 300 μM Citrate
[4] = read-out: ACL-MDH Coupled Assay (IC50), 8 nM ACL, 60 μM CoA Na2, 85 μM Citrate, 250 μM ATP, 250 μM NADH

| Compound | IC50 (ACL [1]; [3]) [nM] | IC50 (ACL [2]) [nM] | IC50 (ACL [1]) [nM] | IC50 (ACL [2]; [4]) [nM] |
| --- | --- | --- | --- | --- |
| O=C(c1cc(Cl)c(O)c(S(=O)(=O)Nc2cc(-c3ccccn3)ccc2F)c1)N1CCC1 [I-206, 5-(azetidine-1-carbonyl)-3-chloro-N-[2-fluoro-5-(pyridin-2-yl)phenyl]-2-hydroxybenzene-1-sulfonamide] |  | 50 to 500 | 50 to 500 |  |
| O=C(c1cc(Cl)c(O)c(S(=O)(=O)Nc2cc(-c3ccccc3)c(F)cc2F)c1)N1CC[C@@H](O)C1 [I-106, (R)-3-chloro-N-(4,6-difluoro-[1,1′-biphenyl]-3-yl)-2-hydroxy-5-(3-hydroxypyrrolidine-1-carbonyl)benzenesulfonamide] | < 50 | 50 to 500 |  |  |
| O=S(=O)(c1cc(Br)cc(Cl)c1O)N(Cc1cncs1)c1ccc(Cl)cc1 [I-514, 5-bromo-3-chloro-N-(4-chlorophenyl)-2-hydroxy-N-(thiazol-5-ylmethyl)benzenesulfonamide] |  | 500 to 30000 | 500 to 20000 |  |
| O=S(=O)(Nc1ccoc1)c1cc(Cl)cc(Cl)c1 [I-368, 3,5-dichloro-N-(furan-3-yl)benzenesulfonamide] |  | > 30000 | 50 to 500 |  |
| COc1ccc(-c2ccccc2)cc1NS(=O)(=O)c1cc(-c2nccn2C)cc(Cl)c1O [I-131, 3-chloro-2-hydroxy-N-[4-methoxy-[1,1-biphenyl]-3-yl]-5-(1-methyl-1H-imidazol-2-yl)benzene-1-sulfonamide] |  | 50 to 500 | 50 to 500 |  |
| C[C@@]1(O)CCN(C(=O)c2cc(Cl)c(O)c(S(=O)(=O)Nc3cc(-c4ccccc4)c(F)cc3F)c2)C1 [I-148, (R)-3-chloro-N-(4,6-difluoro-[1,1′-biphenyl]-3-yl)-2-hydroxy-5-(3-hydroxy-3-methylpyrrolidine-1-carbonyl)benzenesulfonamide] | < 50 |  |  | < 50 |
| COC(=O)c1cc(Cl)c(O)c(C(=O)Nc2cc(-c3ccccc3)c(F)cc2F)c1 [I-146, methyl 3-chloro-5-((4,6-difluoro-[1,1′-biphenyl]-3-yl)carbamoyl)-4-hydroxybenzoate] |  | 500 to 30000 | 500 to 20000 |  |
| COc1c(Cl)cc(C(=O)O)cc1S(=O)(=O)Nc1cc(-c2ccccc2)c(F)cc1F [I-62, 3-chloro-5-[(2,4-difluoro-5-phenylphenyl)sulfamoyl]-4-methoxybenzoic Acid] |  | 500 to 30000 | 500 to 20000 |  |
| O=C(O)c1ccc(-c2ccccc2)cc1NS(=O)(=O)C1CCC1 [I-329] |  | 500 to 30000 | 500 to 20000 |  |
| O=C(O)c1sc(-c2ccc(Cl)cc2)cc1NS(=O)(=O)c1cc(Cl)cc(Cl)c1 [I-322, 5-(4-chlorophenyl)-3-((3,5-dichlorophenyl)sulfonamido)thiophene-2-carboxylic acid] |  | 500 to 30000 | 500 to 20000 |  |
| CC(C)NC(=O)c1cc(Cl)c(O)c(S(=O)(=O)Nc2cc(-c3ccccc3)c(F)cc2F)c1 [I-93] | < 50 | 50 to 500 |  |  |
| O=S(=O)(Nc1cc(-c2nn[nH]n2)ccc1F)c1cc(Cl)cc(Cl)c1O [I-24, 3,5-dichloro-N-[2-fluoro-5-(2H-1,2,3,4-tetrazol-5-yl)phenyl]-2-hydroxybenzene-1-sulfonamide] |  | 500 to 30000 | 500 to 20000 |  |
| O=C(O)c1cc(Cl)c(O)c(S(=O)(=O)Nc2cc(-c3cccs3)c(F)cc2F)c1 [I-248, 3-chloro-5-[[2,4-difluoro-5-(thiophen-2-yl)phenyl]sulfamoyl]-4-hydroxybenzoic Acid] |  | 500 to 30000 | 500 to 20000 |  |
| O=C(c1cc(Cl)c(O)c(S(=O)(=O)Nc2cc(-c3ccccc3)cc(F)c2F)c1)N1CCC1 [I-160, 5-(azetidine-1-carbonyl)-3-chloro-N-[4,5-difluoro-[1,1-biphenyl]-3-yl]-2-hydroxybenzene-1-sulfonamide] | < 50 |  |  | < 50 |
| O=C(c1cc(Cl)c(O)c(S(=O)(=O)N(C(=O)C2CC2)c2cc(-c3ccccc3)c(F)cc2F)c1)N1CCC1 [I-229, N-((5-(azetidine-1-carbonyl)-3-chloro-2-hydroxyphenyl)sulfonyl)-N-(4,6-difluoro-[1,1′-biphenyl]-3-yl)cyclopropanecarboxamide] | < 50 | 50 to 500 |  |  |
| O=C(c1cc(Cl)c(O)c(NS(=O)(=O)c2cc(-c3ccccc3)ccc2F)c1)N1CCC1 [I-215, N-[5-(azetidine-1-carbonyl)-3-chloro-2-hydroxyphenyl]-4-fluoro-[1,1-biphenyl]-3-sulfonamide] |  |  | 500 to 20000 |  |

Continued, in another order:

| IC50 (ACL [1]; [3]) [nM] | IC50 (ACL [2]) [nM] | IC50 (ACL [1]) [nM] | Compound | IC50 (ACL [2]; [4]) [nM] |
| --- | --- | --- | --- | --- |
| < 50 | 50 to 500 |  | C[C@]1(O)CCN(C(=O)c2cc(Cl)c(O)c(S(=O)(=O)Nc3cc(-c4ccccc4)c(F)cc3F)c2)C1 [I-149, (S)-3-chloro-N-(4,6-difluoro-[1,1′-biphenyl]-3-yl)-2-hydroxy-5-(3-hydroxy-3-methylpyrrolidine-1-carbonyl)benzenesulfonamide] |  |
|  | 500 to 30000 | 500 to 20000 | CCC(=O)Oc1c(Cl)cc(Cl)cc1S(=O)(=O)Nc1cc(-c2ccccc2)ccc1F [I-50, 2,4-dichloro-6-(N-(4-fluoro-[1,1′-biphenyl]-3-yl)sulfamoyl)phenyl propionate] |  |
|  | 500 to 30000 | 500 to 20000 | COC(=O)c1cc(Br)cc(S(=O)(=O)Nc2cc(-c3ccccc3)ccc2C(=O)O)c1 [I-295, 3-((3-bromo-5-(methoxycarbonyl)phenyl)sulfonamido)-[1,1′-biphenyl]-4-carboxylic Acid] |  |
|  | 500 to 30000 | 500 to 20000 | O=C(c1cc(Cl)c(O)c(S(=O)(=O)Cc2cc(-c3ccccc3)c(F)cc2F)c1)N1CCCC1 [I-211, (3-chloro-5-(((4,6-difluoro-[1,1′-biphenyl]-3-yl)methyl)sulfonyl)-4-hydroxyphenyl)(pyrrolidin-1-yl)methanone] |  |
|  | 500 to 30000 | 50 to 500 | O=C(c1cc(Cl)c(O)c(S(=O)(=O)Nc2cc(-c3ccccc3)c(F)cc2F)c1)N1CCCCC1 [I-102, 3-chloro-N-(2,4-difluoro-5-phenylphenyl)-2-hydroxy-5-[(piperidin-1-yl)carbonyl]benzene-1-sulfonamide] |  |
|  | 500 to 30000 | 500 to 20000 | Cc1c(S(=O)(=O)Nc2cc(-c3ccccc3)ccc2C(=O)O)c2ccccc2n1C [I-335] |  |
|  | 50 to 500 | 50 to 500 | CS(=O)(=O)c1cc(Cl)c(O)c(S(=O)(=O)Nc2cc(-c3ccccc3)c(F)cc2F)c1 [I-124, 3-chloro-N-[4,6-difluoro-[1,1-biphenyl]-3-yl]-2-hydroxy-5-methanesulfonylbenzene-1-sulfonamide] |  |
|  | 50 to 500 | 50 to 500 | O=S(=O)(Nc1cc(-c2ccccc2)ccc1OC(F)(F)F)c1cc(Cl)cc(Cl)c1O [I-509, 3,5-dichloro-2-hydroxy-N-(4-(trifluoromethoxy)-[1,1′-biphenyl]-3-yl)benzenesulfonamide] |  |
|  | 500 to 30000 | 500 to 20000 | O=S(=O)(Nc1cc(Cl)cc(-c2nccs2)c1)c1cc(Cl)cc(Cl)c1O [I-240, 3,5-dichloro-N-(3-chloro-5-(thiazol-2-yl)phenyl)-2-hydroxybenzenesulfonamide] |  |
|  | 500 to 30000 | 500 to 20000 | O=C(O)c1cc(F)c(-c2ccccc2)cc1NS(=O)(=O)c1cc(Cl)cc(Cl)c1O [I-289, 5-((3,5-dichloro-2-hydroxyphenyl)sulfonamido)-2-fluoro-[1,1′-biphenyl]-4-carboxylic Acid] |  |
|  | > 30000 | 500 to 20000 | N#Cc1cc(Cl)cc(S(=O)(=O)Nc2cc(-c3cc4ccccc4s3)c(F)cc2F)c1 [I-203, N-(5-(benzo[b]thiophen-2-yl)-2,4-difluorophenyl)-3-chloro-5-cyanobenzenesulfonamide] |  |
|  | 500 to 30000 | 500 to 20000 | O=C(O)c1ccc(F)c(NS(=O)(=O)c2cc(Cl)cc(Cl)c2O)c1 [I-12, 3-((3,5-dichloro-2-hydroxyphenyl)sulfonamido)-4-fluorobenzoic Acid] |  |
|  | 500 to 30000 | 50 to 500 | O=C(c1cc(Cl)c(O)c(S(=O)(=O)Nc2cc(-c3cccnc3)c(F)cc2F)c1)N1CCC1 [I-197, 5-(azetidine-1-carbonyl)-3-chloro-N-[2,4-difluoro-5-(pyridin-3-yl)phenyl]-2-hydroxybenzene-1-sulfonamide] |  |
|  | 500 to 30000 | 500 to 20000 | CC(C)(C)OC(=O)NC1CN(C(=O)c2cc(Cl)c(O)c(S(=O)(=O)Nc3cc(-c4ccccc4)c(F)cc3F)c2)C1 [I-201, tert-butyl N-[1-[3-chloro-5-([4,6-difluoro-[1,1-biphenyl]-3-yl]sulfamoyl)-4-hydroxybenzoyl]azetidin-3-yl]carbamate] |  |
|  | 500 to 30000 | 500 to 20000 | O=C(O)c1ccc(-c2ccccc2)cc1NS(=O)(=O)c1cc(Cl)c(Cl)s1 [I-311, 3-((4,5-dichlorothiophene)-2-sulfonamido)-[1,1′-biphenyl]-4-carboxylic acid] |  |
|  | 500 to 30000 | 500 to 20000 | O=C(O)c1ccc(-c2cc3ccccc3s2)cc1NS(=O)(=O)c1cc(Cl)cc(C(F)(F)F)c1 [I-294, 4-(benzo[b]thiophen-2-yl)-2-((3-chloro-5-(trifluoromethyl)phenyl)sulfonamido)benzoic Acid] |  |
|  | 500 to 30000 | 500 to 20000 | COC(=O)Cc1cc(Cl)c(O)c(S(=O)(=O)Nc2cc(-c3ccccc3)ccc2OC)c1 [I-94, Methyl 2-[3-chloro-4-hydroxy-5-[(2-methoxy-5-phenylphenyl)sulfamoyl]phenyl]acetate] |  |
|  | 500 to 30000 | 500 to 20000 | O=C(O)c1ccc(-c2ccccc2)cc1NS(=O)(=O)c1cccc2nonc12 [I-339] |  |
| < 50 | 50 to 500 |  | O=C(c1cc(Cl)c(O)c(S(=O)(=O)Nc2cc(-c3ccccc3)c(F)cc2F)c1)N1CC[C@H](F)C1 [I-118, (S)-3-chloro-N-(4,6-difluoro-[1,1′-biphenyl]-3-yl)-5-(3-fluoropyrrolidin-1-carbonyl)-2-hydroxybenzenesulfonamide] |  |
|  | > 30000 | > 20000 | COc1ccc(-c2ccccc2)cc1NS(=O)(=O)c1ccc(-c2nn[nH]n2)cc1 [I-407, N-(2-methoxy-5-phenylphenyl)-4-(2H-1,2,3,4-tetrazol-5-yl)benzene-1-sulfonamide] |  |
